Reference: EP2818472A1, “Imidazo[4,5-c]pyridine and pyrrolo[3,2-c]pyridine compounds as G-protein-coupled receptor kinase 5 (GRK5) modulators” (Max-Planck-Gesellschaft zur Förderung der Wissenschaften …, priority 2013, dated 2014)

Legend:
beta-TC6 cells [1] = assay: Insulin HTRF assay (relative activity Ar) in beta-TC6 cells; format: cell-based, mouse; conditions: Mus musculus, Beta-TC6, 4 h, insulin HTRF, supernatant of beta-TC6 cells, incubation with test compound at 37°C for 2, 3, 4h; read-out: Ar (relative activity)
How it was run: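 beta-TC6 cells (15k/well, seeded 24 or 48 h) washed, then exposed to compound in induction buffer (0.5% DMSO final) for 2, 3 or 4 h at 37°C.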

beta-TC6 cells [2] = assay: Insulin release by beta-TC6 cells in high glucose medium, rat/mouse insulin ELISA; format: cell-based; conditions: 2 h; for Insulin release by beta-TC6 cells at 5µM [%]: 5 µM compound, high glucose (4.5 g/L) DMEM, % increase in regard to the DMSO control (set at 0%); for effect on the insulin release by beta-TC6 cells compared with the positive control Sunitinib: 5 µM, high glucose (4.5 g/L)
Method: After having identified the most promising compounds acting as GRK5 inhibitors and determined the IC50 values, the effect of the compounds of the example 2 on the release of insulin by beta-TC6 was determined. […] Release of insulin was detected using a rat/mouse insulin ELISA.
To order to measure the insulin released by beta-TC6 insulinoma (mouse) cells upon treatment with the compounds of the present invention, beta-TC6 insulinoma (mouse)cells were washed and incubated for 2 h in high (4.5 g/L) or low (1.125 g/L) glucose media at 37 °C. After incubation, the supernatant of the beta-TC6 insulinoma cells was diluted 1:20. The insulin release was measured with rat/mouse insulin ELISA (Merck Millipore Darmstadt, Cat. # EZRMI-13K) by following the manufacture protocol. The enzyme activity of the horseradish peroxidase of the immobilized biotinylated antibodies was monitored spectrophotometrically by the increased absorbency at 490 nm, and corrected by the absorbency at 610 nm. […] Table 3: Insulin release by beta-TC6 cells treated with the compounds of the present invention (the % values are in regard to the DMSO control, thus 30% means an increase of insulin release of 30% in regard to the physiological conditions where the insulin release is set at 0%)

C2C12 cells = assay: 2-NBDG glucose uptake in C2C12 cells, flow cytometry; format: cell-based; conditions: 5 µM compound, 1 h, glucose free media with 100 µM 2-NBDG
Method: To investigate the impact of the GRK5 inhibitors on glucose uptake, the fluorescent D-glucose analog 2-[N-(7-nitrobenz-2-oxa-1,3-diazol-4-yl)-amino]-2-deoxy-D-glucose (2-NBDG) was used. 2-NBDG is a fluorescently-labeled deoxyglucose analog that is commonly used to directly monitor glucose uptake by living cells. For 2-NBDG detection, cells were cultured for 1 h together with 5 µM of an inventive compound in glucose free media supplied with 100 µM 2-NBDG at 37 °C before collecting. Furthermore, as internal controls, samples of glucose free media, respectively glucose free media with test compound, were tested. Subsequently, cells were washed, trypsinized and harvested in ice-cold PBS before centrifuged at 1.6 x10^3 rpm at 4°C. Cells were analyzed by flow cytometry (FACS Calibur, BD Bioscience, respectively a BD Accuri® C6 Flow Cytometer). For evaluation, cells were gated using the side- and forward scatter SSC/FSC and quantified by excited at 488 nm and collected at […] (FL1). Table 4: 2-NBDG glucose uptake (%) by cells treated with the compounds of the present application

beta-TC6 cells [3] = assay: Glucose dependent insulin release by beta-TC6 cells in low glucose medium, rat/mouse insulin ELISA; format: cell-based; set-up: unit not given here; conditions: media with 1.125 mM (20 mg/dL) glucose, 2 h, compared with DMSO control

| SMILES | Emax (beta-TC6 cells [1]) | Insulin release by beta-TC6 cells at 5µM [%] (beta-TC6 cells [2]) | other results |
| --- | --- | --- | --- |
| CN1CCN(c2ccc(Nc3cc4[nH]c(-c5cccc(N)c5)cc4cn3)cc2)CC1 [Compound 3, 2-(3-aminophenyl)-N-[4-(4-methylpiperazin-1-yl)phenyl]-1H-pyrrolo[3,2-c]pyridin-6-amine] | > 100% | 15.43% | 2-NBDG Glucose Uptake [%] (C2C12 cells): 38.51% |
| NC(=O)c1ccc(Nc2cc3[nH]c(-c4cccc(F)c4)cc3cn2)cc1 [Compound 6, 4-[[2-(3-fluorophenyl)-1H-pyrrolo[3,2-c]pyridin-6-yl]amino]benzamide] | 50 to 100% | 81.25% | effect on the insulin release by beta-TC6 cells compared with the positive control Sunitinib (beta-TC6 cells [2]): level similar to Sunitinib; 2-NBDG Glucose Uptake [%] (C2C12 cells): 45.35% |
| COc1ccc(Nc2cc3c(cn2)cc(-c2cnn(C)c2)n3C)cc1 [Compound 137, N-(4-methoxyphenyl)-1-methyl-2-(1-methylpyrazol-4-yl)pyrrolo[3,2-c]pyridin-6-amine] | 50 to 100% |  | 2-NBDG Glucose Uptake [%] (C2C12 cells): 69.73% |
| Cn1c(-c2cccnc2)cc2c(Nc3cccc(C(F)(F)F)c3)nccc21 [Compound 243, 1-methyl-2-(3-pyridyl)-N-[3-(trifluoromethyl)phenyl]pyrrolo[3,2-c]pyridin-4-amine] | 0 to 30% | 142.26% | effect on the insulin release by beta-TC6 cells compared with the positive control Sunitinib (beta-TC6 cells [2]): better effect on the insulin release by beta-TC6 cells than the positive control Sunitinib; 2-NBDG Glucose Uptake [%] (C2C12 cells): 48.87% |
| COc1ccccc1-c1cc2c(Nc3ccc(SC)cc3)nccc2n1C [Compound 305, 2-(2-methoxyphenyl)-1-methyl-N-(4-methylsulfanylphenyl)pyrrolo[3,2-c]pyridin-4-amine] | 30 to 50% | 20.24% | 2-NBDG Glucose Uptake [%] (C2C12 cells): 50.81% |
| COc1ccc(-c2nc3c(Nc4ccc(OC)c(OC)c4)nccc3[nH]2)cc1 [Compound 392, N-(3,4-dimethoxyphenyl)-2-(4-methoxyphenyl)-1H-imidazo[4,5-c]pyridin-4-amine] | 50 to 100% | 30.52% |  |
| COc1ccc(Nc2nccc3[nH]c(-c4cccc(OC)c4F)nc23)cc1 [Compound 475, 2-(2-fluoro-3-methoxy-phenyl)-N-(4-methoxyphenyl)-1H-imidazo[4,5-c]pyridin-4-amine] | 50 to 100% | 48.72% |  |
| COc1ccc(-c2cc3c(cn2)nc(NCc2ccccc2F)n3C)cc1OC [Compound 865, 6-(3,4-dimethoxyphenyl)-N-[(2-fluorophenyl)methyl]-1-methyl-imidazo[4,5-c]pyridin-2-amine] | 30 to 50% |  |  |
| Cn1c(NCc2ccccc2F)nc2cnc(-c3cccc(Cl)c3)cc21 [Compound 866, 6-(3-chlorophenyl)-N-[(2-fluorophenyl)methyl]-1-methyl-imidazo[4,5-c]pyridin-2-amine] | 30 to 50% |  |  |
| Cn1c(NCc2ccccc2F)nc2cnc(-c3cccc(CO)c3)cc21 [Compound 868, [3-[2-[(2-fluorophenyl)methylamino]-1-methyl-imidazo[4,5-c]pyridin-6-yl]phenyl]methanol] | 0 to 30% |  |  |
| CNc1nc2cnc(-c3ccsc3)cc2n1Cc1ccc(OC)c(OC)c1 [Compound 877, 1-[(3,4-dimethoxyphenyl)methyl]-N-methyl-6-(3-thienyl)imidazo[4,5-c]pyridin-2-amine] | 30 to 50% |  |  |
| CNc1nc2cnc(-c3ccc(O)c(OC)c3)cc2n1Cc1ccc(OC)c(OC)c1 [Compound 879, 4-[1-[(3,4-dimethoxyphenyl)methyl]-2-(methylamino)imidazo[4,5-c]pyridin-6-yl]-2-methoxy-phenol] | 30 to 50% |  |  |
| CNc1nc2cnc(-c3cccs3)cc2n1Cc1ccc(OC)c(OC)c1 [Compound 880, 1-[(3,4-dimethoxyphenyl)methyl]-N-methyl-6-(2-thienyl)imidazo[4,5-c]pyridin-2-amine] | 30 to 50% |  |  |
| COc1cncc(-c2cc3[nH]c(NCC4CCCO4)nc3cn2)c1 (stereo not shown) [Compound 881, 6-(5-methoxy-3-pyridyl)-N-(tetrahydrofuran-2-ylmethyl)-1H-imidazo[4,5-c]pyridin-2-amine] | 0 to 30% |  |  |
| CNc1nc2cnc(-c3cccc4ccccc34)cc2n1-c1cccc(F)c1 [Compound 884, 1-(3-fluorophenyl)-N-methyl-6-(1-naphthyl)imidazo[4,5-c]pyridin-2-amine] | 30 to 50% |  |  |
| CNc1nc2cnc(-c3ccc4c(c3)OCO4)cc2n1-c1cccc(F)c1 [Compound 885, 6-(1,3-benzodioxol-5-yl)-1-(3-fluorophenyl)-N-methyl-imidazo[4,5-c]pyridin-2-amine] | 0 to 30% |  |  |
| CNc1nc2cnc(-c3ccc(O)c(OC)c3)cc2n1-c1cccc(F)c1 [Compound 888, 4-[1-(3-fluorophenyl)-2-(methylamino)imidazo[4,5-c]pyridin-6-yl]-2-methoxy-phenol] | 30 to 50% |  |  |
| CCN(CC)CCNC(=O)c1c(C)[nH]c(/C=C2\C(=O)Nc3ccc(F)cc32)c1C [Sunitinib] |  |  | insulin release in low glucose media (beta-TC6 cells [3]): 0.77 ± 0.03 |
